Assay results reported in patent US5852034A, “Benzo(5,6)cycloheptapyridine cyclic ureas and lactams useful as farnesyl protein transferase inhibitors” (Schering Corporation, priority 1997, dated 1998).

Target: farnesyl protein transferase (Homo sapiens, UniProt P49354+P49356)
Assay: FPT IC50 (inhibition of farnesyl protein transferase, in vitro enzyme assay)
Assay type: biochemical
Conditions: procedures described in WO 95/10516
Description: (§1) FPT IC50 (inhibition of farnesyl protein transferase, in vitro enzyme assay), COS Cell IC50 (Cell-Based Assay), GGPT IC50 (inhibition of geranylgeranyl protein transferase, in vitro enzyme assay), Cell Mat Assay, and anti-tumor activity (in vivo anti-tumor studies) are determined by the assay procedures described in WO 95/10516.

| Compound | IC50 [µM] |
| --- | --- |
| O=C(CN1CCCC1=O)N1CCC([C@H]2c3ncc(Br)cc3CCc3cc(Cl)cc(Br)c32)CC1 [Example 1, (+)-4-(3,10-Dibromo-8-chloro-6,11-dihydro-5H-benzo[5,6]cyclohepta-[1,2-b]pyridin-11-yl)-1-[(2-oxo-1-pyrrolidinyl)acetyl]piperidine] | 0.004 |
| O=C1CCCN1CCCC(=O)N1CCC([C@H]2c3ncc(Br)cc3CCc3cc(Cl)cc(Br)c32)CC1 [Example 3, (+)-4-(3,10-Dibromo-8-chloro-6,11-dihydro-5H-benzo[5,6]cyclohepta-[1,2-b]pyridin-11-yl)-1-[1-oxo-4-(2-oxo-1-pyrrolidinyl)butyl]piperidine] | 0.085 |
| O=C(CN1CCCCC1=O)N1CCC([C@H]2c3ncc(Br)cc3CCc3cc(Cl)cc(Br)c32)CC1 [Example 4, (+)-4-(3,10-Dibromo-8-chloro-6,11-dihydro-5H-benzo[5,6]cyclohepta-[1,2-b]pyridin-11-yl)-1-[(2-oxo-1-piperidinyl)acetyl]piperidine] | 0.0028 |
| O=C1CCCCN1CCC(=O)N1CCC([C@H]2c3ncc(Br)cc3CCc3cc(Cl)cc(Br)c32)CC1 [Example 5, (+)-4-(3,10-Dibromo-8-chloro-6,11-dihydro-5H-benzo[5,6]cyclohepta-[1,2-b]pyridin-11-yl)-1-[1-oxo-3-(2-oxo-1-piperidinyl)propyl]piperidine] | 0.019 |
| O=C1CCCCN1CCCC(=O)N1CCC([C@H]2c3ncc(Br)cc3CCc3cc(Cl)cc(Br)c32)CC1 [Example 6, (+)-4-(3,10-Dibromo-8-chloro-6,11-dihydro-5H-benzo[5,6]cyclohepta-[1,2-b]pyridin-11-yl)-1-[1-oxo-4-(2-oxo-1-piperidinyl)butyl]piperidine] | 0.08 |
| O=C(CN1CCNC1=O)N1CCC([C@H]2c3ncc(Br)cc3CCc3cc(Cl)cc(Br)c32)CC1 [Example 7, (+)-4-(3,10-Dibromo-8-chloro-6,11-dihydro-5H-benzo[5,6]cyclohepta-[1,2-b]pyridin-11-yl)-1-[(2-oxo-1-imidazolidinyl)acetyl]piperidine] | 0.023 |
| O=C(CCCN1CCNC1=O)N1CCC([C@H]2c3ncc(Br)cc3CCc3cc(Cl)cc(Br)c32)CC1 [Example 9] | 0.016 |
| O=C(CN1CCCNC1=O)N1CCC([C@H]2c3ncc(Br)cc3CCc3cc(Cl)cc(Br)c32)CC1 [Example 10, (+)-4-(3,10-Dibromo-8-chloro-6,11-dihydro-5H-benzo[5,6]cyclohepta-[1,2-b]pyridin-11-yl)-1-[(hexahydro-2-oxo-1-pyrimidinyl)acetyl]piperidine] | 0.0032 |
| O=C(CCN1CCCNC1=O)N1CCC([C@H]2c3ncc(Br)cc3CCc3cc(Cl)cc(Br)c32)CC1 [Example 11, (+)-4-(3,10-Dibromo-8-chloro-6,11-dihydro-5H-benzo[5,6]cyclohepta-[1,2-b]pyridin-11-yl)-1-[1-oxo-3-(hexahydo-2-oxo-1-pyrimidinyl)-oxopropyl]piperidine] | 0.02 |
| O=C(CCCN1CCCNC1=O)N1CCC([C@H]2c3ncc(Br)cc3CCc3cc(Cl)cc(Br)c32)CC1 [Example 12, (+)-4-(3,10-Dibromo-8-chloro-6,11-dihydro-5H-benzo[5,6]cyclohepta[1,2-b]pyridin-11-yl)-1-[4-(hexahydo-2-oxo-1-pyrimidinyl)oxobutyl]piperidine] | 0.056 |

Test system: Ras processing in COS cells
Assay: COS Cell IC50 (Cell-Based Assay), inhibition of Ras processing
Conditions: procedures described in WO 95/10516
Description: as §1

| Compound | IC50 [µM] |
| --- | --- |
| O=C(CN1CCCC1=O)N1CCC([C@H]2c3ncc(Br)cc3CCc3cc(Cl)cc(Br)c32)CC1 [Example 1, (+)-4-(3,10-Dibromo-8-chloro-6,11-dihydro-5H-benzo[5,6]cyclohepta-[1,2-b]pyridin-11-yl)-1-[(2-oxo-1-pyrrolidinyl)acetyl]piperidine] | 0.5 |
| O=C(CN1CCCNC1=O)N1CCC([C@H]2c3ncc(Br)cc3CCc3cc(Cl)cc(Br)c32)CC1 [Example 10, (+)-4-(3,10-Dibromo-8-chloro-6,11-dihydro-5H-benzo[5,6]cyclohepta-[1,2-b]pyridin-11-yl)-1-[(hexahydro-2-oxo-1-pyrimidinyl)acetyl]piperidine] | 0.016 |
